Reference: US20250129102A1, “CRYSTAL FORM OF PYRIMIDINE HETEROCYCLIC COMPOUND AND PREPARATION METHOD THEREFOR” (D3 Bio (Wuxi) Co., Ltd., priority 2021, published 2025)

Tests used:
Format in all cases: in vitro ADME
[1] = In vitro stability in liver microsomes, CD-1 mice; conditions: mouse, CD-1 mice liver microsomes, 0.5 mg/mL
Description: (§1) Metabolic stabilities of the assay compound in liver microsomes of CD-1 mice, SD rats, beagle dogs, cynomolgus monkeys, and human were assayed, respectively.
(§2) Two 96-well incubation plates were prepared and named T60 incubation plate and NCF60 incubation plate, respectively. 445 μL of microsomal working solutions (liver microsomal protein concentration of 0.56 mg/mL) were added to the T60 incubation plate and the NCF60 incubation plate, respectively, and then the above incubation plates were pre-incubated in a 37° C. water bath for about 10 minutes.
(§3) After the pre-incubation, 5 μL of working solutions of the assay sample or the control compound were added to the T60 incubation plate and the NCF60 incubation plate, respectively, and the mixture was mixed well. 50 μL of potassium phosphate buffer was added to each well of the NCF60 incubation plate to initiate the reaction. 180 μL of stop solution (200 ng/mL tolbutamide and 200 ng/mL labetalol in acetonitrile) and 6 uL of NADPH regeneration system working solution were added to the T0 stop plate, and 54 μL of sample was transferred from T60 incubation plate to T0 stop plate (generation of T0 sample). The reaction was initiated by adding 44 μL of NADPH regeneration system working solution to each well of the T60 incubation plate. Only 54 μL of microsome working solution, 6 uL of NADPH regeneration system working solution and 180 μL of stop solution were added to the Blank plate. Therefore, in samples of the assay compound or the control compound, the final reaction concentration of compound, testosterone, diclofenac and propafenone was 1 μM, the concentration of liver microsomes was 0.5 mg/mL, and the final reaction concentrations of DMSO and acetonitrile in the reaction system were 0.01% (v/v) and 0.99% (v/v), respectively. […] All samples were injected and analyzed by liquid chromatography-tandem mass spectrometry.

[2] = Protein binding rate in plasma by equilibrium dialysis, CD-1 mice
Description: Protein binding rate of the assay compound in plasma of CD-1 mice, SD rats, beagle dogs, cynomolgus monkeys and human was determined by equilibrium dialysis.
(§4) Plasma samples with a compound concentration of 2 μM were prepared using plasma of the above five species, placed in a 96-well equilibrium dialysis device, and dialyzed with phosphate buffer solution at 37±1° C. for 4 hours. Warfarin was used as the control compound in this assay. The concentrations of the assay compound in plasma and dialysis buffer were determined by LC-MS/MS method.

[3] = In vitro stability in liver microsomes, SD rats; conditions: rat, 0.5 mg/mL
Description: as §1, §2, §3

[4] = Metabolic stability in hepatocytes, SD rats; conditions: rat, cryopreserved hepatocytes
Description: (§5) Metabolic stabilities of assay compound in hepatocytes of CD-1 mice, SD rats, beagle dogs, cynomolgus monkeys, and human were assayed, respectively.
(§6) Several 96-well sample precipitation plates were prepared and named T0, T15, T30, T60, T90, T120, T0-MC, T120-MC and blank substrates, respectively. The recovery medium and incubation medium were taken out in advance and placed in a 37° C. water bath for pre-heating. Cryopreserved hepatocytes were removed from the liquid nitrogen tank and immediately immersed in a 37° C. water bath (approximately 90 seconds). After the cryopreserved hepatocytes had thawed and loosened, they were poured into a centrifuge tube containing 40 mL of recovery medium, and the tube was gently inverted to allow the cells to be resuspended in the recovery medium. The cells were centrifuged at 100×g at room temperature for 5 min, and the supernatant was removed. The hepatocytes were resuspended in an appropriate volume of incubation medium, and the cell viability was calculated by Trypan Blue staining method. 198 μL of hepatocyte suspension (0.51×10^6 cells/mL) was added to the preheated incubation plate. For the culture medium control group, 198 μL of hepatocyte-free incubation medium was added to T0-MC and T120-MC incubation plate. All incubation plates were pre-incubated in a 37° C. incubator for 10 minutes. Then 2 μL of working solutions of the assay sample and the control compound were added, respectively, and the mixture was mixed well. The incubation plate was immediately put into the shaker in the incubator, and the reaction was initiated while starting the timer. For each time point of each compound, 2 duplicate samples were prepared. The incubation conditions were 37° C., saturated humidity, and 5% CO2. […] All samples were mixed well and analyzed by LC/MS/MS.

[5] = In vitro stability in liver microsomes, cynomolgus monkeys; conditions: cynomolgus monkey, 0.5 mg/mL
Description: as §1, §2, §3

[6] = Metabolic stability in hepatocytes, CD-1 mice; conditions: mouse, cryopreserved hepatocytes, CD-1 mice hepatocytes
Description: as §5, §6

[7] = Metabolic stability in hepatocytes, human; conditions: cryopreserved hepatocytes
Description: as §5, §6

[8] = Protein binding rate in plasma by equilibrium dialysis, human; conditions: 2 μM, equilibrium dialysis 4 hours
Description: as §4, with “Protein binding rate of the assay compound in plasma of CD-1 mice, SD rats, beagle dogs, cynomolgus monkeys and human was determined by equilibrium dialysis. Plasma” for “Plasma”

What does the source list for `C=C(F)C(=O)N1CCN(c2nc(OC[C@@]34CCCN3C[C@H](F)C4)nc3c2CO[C@H](c2c(F)c(N)cc(C)c2C(F)(F)F)C3)C[C@@H]1CC#N` [Compound of formula (I)]?
CLint scaled at 1 μM [1]: 1130 mL/min/kg; half-life at 1 μM [1]: 4.9 min; microsomal CLint at 1 μM ([1]; read-out: CLint(hep)): 285 µL/min/mg; fraction unbound at 4 h, 2 μM ([2]; CD-1, plasma, value used in the CD mouse PK table, read-out: Plasma protein unbound rate PPB (Unbound %)): 0.12; Protein unbound rate (%) ([2]; CD-1 mice plasma, 2 μM, equilibrium dialysis 4 hours): 1.5%; CLint scaled at 1 μM [3]: 108 mL/min/kg; half-life at 1 μM [3]: 23 min; microsomal CLint at 1 μM ([3]; read-out: CLint(hep)): 60.2 µL/min/mg; half-life at 1 μM [4]: 20.6 min; hepatocyte CLint at 1 μM ([4]; read-out: CLint(hep)): 67.4 µL/min/1e6 cells; CLint scaled at 1 μM ([4]; read-out: CLint(liver)): 315 mL/min/kg; CLint scaled at 1 μM [5]: 303 mL/min/kg; half-life at 1 μM [5]: 6.2 min; microsomal CLint at 1 μM ([5]; read-out: CLint(hep)): 225 µL/min/mg; half-life at 1 μM [6]: 9.5 min; hepatocyte CLint at 1 μM ([6]; read-out: CLint(hep)): 146 µL/min/1e6 cells; CLint scaled at 1 μM ([6]; read-out: CLint(liver)): 1740 mL/min/kg; half-life at 1 μM [7]: 99.5 min; hepatocyte CLint at 1 μM ([7]; read-out: CLint(hep)): 13.9 µL/min/1e6 cells; CLint scaled at 1 μM ([7]; read-out: CLint(liver)): 38.7 mL/min/kg; Protein unbound rate (%) [8]: 4.8%
